Test results as given in ChEMBL document CHEMBL5678810.

What was measured:
[1] = molecular target: Dual specificity mitogen-activated protein kinase kinase 5 (Homo sapiens, UniProt Q13163); experiment: Inhibition of GST-tagged MEK5 (unknown origin) expressed in baculovirus expression system incubated for 90 mins in presence of ATP by PKLight ATP Detection Reagent based analysis
[2] = molecular target: Mitogen-activated protein kinase 7 (Homo sapiens, UniProt Q13164); experiment: Inhibition of GST-tagged ERK5 (unknown origin) expressed in baculovirus expression system incubated for 90 mins in presence of ATP by PKLight ATP Detection Reagent based analysis
Mitogen-activated protein kinase 7, sequence (Q13164 whole entry, the tested form may be a part): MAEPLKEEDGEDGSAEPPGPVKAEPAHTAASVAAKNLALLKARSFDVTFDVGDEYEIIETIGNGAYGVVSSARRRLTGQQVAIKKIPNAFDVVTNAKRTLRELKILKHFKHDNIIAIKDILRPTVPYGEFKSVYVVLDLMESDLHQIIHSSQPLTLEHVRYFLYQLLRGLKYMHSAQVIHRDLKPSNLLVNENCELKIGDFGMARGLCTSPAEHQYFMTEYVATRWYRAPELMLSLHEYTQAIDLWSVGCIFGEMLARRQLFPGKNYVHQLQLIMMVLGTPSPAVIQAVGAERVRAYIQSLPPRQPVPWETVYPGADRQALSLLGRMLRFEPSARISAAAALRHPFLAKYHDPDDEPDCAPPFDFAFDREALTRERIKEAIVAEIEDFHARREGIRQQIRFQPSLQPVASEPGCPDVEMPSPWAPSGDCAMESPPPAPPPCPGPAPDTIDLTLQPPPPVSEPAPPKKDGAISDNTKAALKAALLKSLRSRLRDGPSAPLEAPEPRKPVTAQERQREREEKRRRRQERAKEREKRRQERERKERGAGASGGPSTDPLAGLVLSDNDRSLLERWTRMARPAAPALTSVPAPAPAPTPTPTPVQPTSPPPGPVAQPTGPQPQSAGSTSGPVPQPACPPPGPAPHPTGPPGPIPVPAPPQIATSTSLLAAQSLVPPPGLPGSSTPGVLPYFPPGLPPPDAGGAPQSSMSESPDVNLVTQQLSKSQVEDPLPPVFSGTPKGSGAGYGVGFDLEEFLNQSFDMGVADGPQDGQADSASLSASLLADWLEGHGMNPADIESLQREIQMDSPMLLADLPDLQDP

[3] = molecular target: STE20-like serine/threonine-protein kinase (Homo sapiens) (UniProt Q9H2G2); experiment: Inhibition of T7 bacteriophage fused human SLK at 10 uM by KINOMEscan analysis relative to control
STE20-like serine/threonine-protein kinase (Homo sapiens), sequence (Q9H2G2 whole entry, looked up, the tested form may be a part): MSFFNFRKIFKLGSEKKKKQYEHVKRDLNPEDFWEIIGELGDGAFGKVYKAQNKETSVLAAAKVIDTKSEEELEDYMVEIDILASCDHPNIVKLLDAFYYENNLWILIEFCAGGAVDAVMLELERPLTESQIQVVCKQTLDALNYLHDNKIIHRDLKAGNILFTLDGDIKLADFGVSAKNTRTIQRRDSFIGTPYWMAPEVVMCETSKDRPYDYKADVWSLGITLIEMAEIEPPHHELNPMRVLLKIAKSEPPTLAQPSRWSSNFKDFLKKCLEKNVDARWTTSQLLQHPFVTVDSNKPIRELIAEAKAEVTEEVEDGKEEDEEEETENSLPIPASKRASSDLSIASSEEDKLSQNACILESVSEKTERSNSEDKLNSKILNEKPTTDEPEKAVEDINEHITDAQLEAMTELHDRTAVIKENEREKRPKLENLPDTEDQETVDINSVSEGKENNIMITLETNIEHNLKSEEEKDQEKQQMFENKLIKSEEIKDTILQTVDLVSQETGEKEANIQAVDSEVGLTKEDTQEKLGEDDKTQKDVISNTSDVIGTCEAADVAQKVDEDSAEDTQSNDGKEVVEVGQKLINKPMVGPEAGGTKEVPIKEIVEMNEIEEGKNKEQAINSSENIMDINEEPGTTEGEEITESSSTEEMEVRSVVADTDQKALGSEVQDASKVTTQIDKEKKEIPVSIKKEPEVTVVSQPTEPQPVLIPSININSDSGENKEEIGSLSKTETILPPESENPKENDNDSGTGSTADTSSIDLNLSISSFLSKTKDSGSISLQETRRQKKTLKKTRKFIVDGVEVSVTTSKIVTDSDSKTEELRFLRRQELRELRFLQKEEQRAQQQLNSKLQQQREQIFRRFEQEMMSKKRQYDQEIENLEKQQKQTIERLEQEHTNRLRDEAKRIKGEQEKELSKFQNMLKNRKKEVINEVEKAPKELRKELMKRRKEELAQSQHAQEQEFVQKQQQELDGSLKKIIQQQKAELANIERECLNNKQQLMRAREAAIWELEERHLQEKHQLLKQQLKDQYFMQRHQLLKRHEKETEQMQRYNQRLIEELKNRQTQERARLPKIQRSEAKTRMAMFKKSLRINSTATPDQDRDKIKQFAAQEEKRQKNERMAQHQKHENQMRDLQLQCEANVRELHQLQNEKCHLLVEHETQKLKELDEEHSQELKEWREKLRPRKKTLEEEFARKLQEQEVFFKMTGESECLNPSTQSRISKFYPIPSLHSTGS

[4] = molecular target: Peripheral plasma membrane protein CASK (Homo sapiens) (UniProt O14936); experiment: Inhibition of T7 bacteriophage fused human CASK at 10 uM by KINOMEscan analysis relative to control
Peripheral plasma membrane protein CASK (Homo sapiens), sequence (O14936 whole entry, looked up, the tested form may be a part): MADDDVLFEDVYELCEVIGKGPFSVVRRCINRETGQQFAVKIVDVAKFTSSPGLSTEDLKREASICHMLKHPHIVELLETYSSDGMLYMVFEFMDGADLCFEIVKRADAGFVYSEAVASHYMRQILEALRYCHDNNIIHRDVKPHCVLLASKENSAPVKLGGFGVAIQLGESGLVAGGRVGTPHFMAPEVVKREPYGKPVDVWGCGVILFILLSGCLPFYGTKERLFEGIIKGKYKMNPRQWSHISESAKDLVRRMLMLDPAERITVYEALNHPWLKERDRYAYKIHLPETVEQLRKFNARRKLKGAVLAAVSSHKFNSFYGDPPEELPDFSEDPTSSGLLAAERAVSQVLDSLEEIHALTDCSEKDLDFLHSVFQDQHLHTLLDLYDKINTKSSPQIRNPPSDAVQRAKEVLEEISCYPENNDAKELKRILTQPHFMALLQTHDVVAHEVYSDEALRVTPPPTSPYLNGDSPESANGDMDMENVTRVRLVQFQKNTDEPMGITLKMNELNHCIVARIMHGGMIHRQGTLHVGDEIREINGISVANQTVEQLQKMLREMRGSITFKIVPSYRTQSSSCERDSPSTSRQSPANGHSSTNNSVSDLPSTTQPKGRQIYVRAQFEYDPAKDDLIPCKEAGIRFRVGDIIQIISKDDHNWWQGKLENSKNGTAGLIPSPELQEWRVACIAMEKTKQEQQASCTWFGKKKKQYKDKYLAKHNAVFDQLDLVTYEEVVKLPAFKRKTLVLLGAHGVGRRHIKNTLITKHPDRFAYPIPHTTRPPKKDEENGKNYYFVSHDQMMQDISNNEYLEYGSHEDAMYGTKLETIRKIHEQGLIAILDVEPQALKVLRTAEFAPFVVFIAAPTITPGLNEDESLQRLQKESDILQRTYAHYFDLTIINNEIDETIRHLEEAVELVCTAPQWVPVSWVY

[5] = molecular target: Ribosomal protein S6 kinase alpha-2 (Homo sapiens) (UniProt Q15349); experiment: Inhibition of T7 bacteriophage fused human C-terminal RSK3 Kinase domain-2 at 10 uM by KINOMEscan analysis relative to control
Ribosomal protein S6 kinase alpha-2 (Homo sapiens), sequence (Q15349 whole entry, the tested form may be a part): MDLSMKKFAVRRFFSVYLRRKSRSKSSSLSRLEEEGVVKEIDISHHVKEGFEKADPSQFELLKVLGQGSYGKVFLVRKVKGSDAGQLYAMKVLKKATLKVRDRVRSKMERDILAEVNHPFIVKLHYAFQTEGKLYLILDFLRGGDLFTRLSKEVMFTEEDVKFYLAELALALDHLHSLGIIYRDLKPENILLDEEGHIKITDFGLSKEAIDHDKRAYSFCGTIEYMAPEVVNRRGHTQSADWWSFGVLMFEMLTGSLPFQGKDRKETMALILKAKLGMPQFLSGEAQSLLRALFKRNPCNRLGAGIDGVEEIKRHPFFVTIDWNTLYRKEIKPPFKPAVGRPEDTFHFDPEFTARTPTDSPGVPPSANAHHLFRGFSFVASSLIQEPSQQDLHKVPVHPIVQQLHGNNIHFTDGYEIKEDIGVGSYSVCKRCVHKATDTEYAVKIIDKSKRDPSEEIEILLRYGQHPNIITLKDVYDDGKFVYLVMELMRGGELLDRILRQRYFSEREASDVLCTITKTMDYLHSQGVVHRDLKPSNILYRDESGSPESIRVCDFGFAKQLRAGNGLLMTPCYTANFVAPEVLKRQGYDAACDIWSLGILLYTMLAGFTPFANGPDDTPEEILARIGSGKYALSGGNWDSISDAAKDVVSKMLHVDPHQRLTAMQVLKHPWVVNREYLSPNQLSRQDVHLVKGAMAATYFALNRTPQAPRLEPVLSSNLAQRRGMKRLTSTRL

[6] = molecular target: T1, Dual specificity protein kinase TTK (Homo sapiens) (UniProt P33981); experiment: Inhibition of T7 bacteriophage fused human TTK at 10 uM by KINOMEscan analysis relative to control
T1 sequence (whole entry): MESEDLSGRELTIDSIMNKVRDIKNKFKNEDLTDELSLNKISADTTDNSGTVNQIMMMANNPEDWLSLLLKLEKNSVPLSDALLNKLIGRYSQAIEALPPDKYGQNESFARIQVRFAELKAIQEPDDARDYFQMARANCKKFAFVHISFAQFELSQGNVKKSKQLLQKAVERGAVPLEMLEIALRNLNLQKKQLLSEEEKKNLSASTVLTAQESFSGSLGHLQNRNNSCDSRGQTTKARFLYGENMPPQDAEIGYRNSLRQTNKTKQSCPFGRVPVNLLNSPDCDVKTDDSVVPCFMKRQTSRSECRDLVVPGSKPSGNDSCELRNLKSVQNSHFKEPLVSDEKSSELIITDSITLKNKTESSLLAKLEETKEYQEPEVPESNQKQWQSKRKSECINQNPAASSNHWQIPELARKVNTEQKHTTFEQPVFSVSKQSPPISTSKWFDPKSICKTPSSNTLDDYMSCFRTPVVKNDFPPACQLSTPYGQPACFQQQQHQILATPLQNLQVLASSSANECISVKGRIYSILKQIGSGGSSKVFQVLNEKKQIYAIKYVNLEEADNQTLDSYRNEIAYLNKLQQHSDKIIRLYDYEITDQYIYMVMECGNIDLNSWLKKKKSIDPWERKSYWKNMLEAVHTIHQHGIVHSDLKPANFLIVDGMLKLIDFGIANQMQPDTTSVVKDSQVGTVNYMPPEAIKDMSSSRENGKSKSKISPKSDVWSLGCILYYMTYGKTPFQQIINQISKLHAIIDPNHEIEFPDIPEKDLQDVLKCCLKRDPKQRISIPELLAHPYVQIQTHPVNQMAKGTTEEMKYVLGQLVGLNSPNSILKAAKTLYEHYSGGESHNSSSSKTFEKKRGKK

[7] = molecular target: Tyrosine-protein kinase Tec (Homo sapiens) (UniProt P42680); experiment: Inhibition of T7 bacteriophage fused human TEC at 10 uM by KINOMEscan analysis relative to control
[8] = molecular target: Ribosomal protein S6 kinase alpha-6 (Homo sapiens) (UniProt Q9UK32); experiment: Inhibition of T7 bacteriophage fused human C-terminal RSK4 Kinase domain-2 at 10 uM by KINOMEscan analysis relative to control
Ribosomal protein S6 kinase alpha-6 (Homo sapiens), sequence (Q9UK32 whole entry, the tested form may be a part): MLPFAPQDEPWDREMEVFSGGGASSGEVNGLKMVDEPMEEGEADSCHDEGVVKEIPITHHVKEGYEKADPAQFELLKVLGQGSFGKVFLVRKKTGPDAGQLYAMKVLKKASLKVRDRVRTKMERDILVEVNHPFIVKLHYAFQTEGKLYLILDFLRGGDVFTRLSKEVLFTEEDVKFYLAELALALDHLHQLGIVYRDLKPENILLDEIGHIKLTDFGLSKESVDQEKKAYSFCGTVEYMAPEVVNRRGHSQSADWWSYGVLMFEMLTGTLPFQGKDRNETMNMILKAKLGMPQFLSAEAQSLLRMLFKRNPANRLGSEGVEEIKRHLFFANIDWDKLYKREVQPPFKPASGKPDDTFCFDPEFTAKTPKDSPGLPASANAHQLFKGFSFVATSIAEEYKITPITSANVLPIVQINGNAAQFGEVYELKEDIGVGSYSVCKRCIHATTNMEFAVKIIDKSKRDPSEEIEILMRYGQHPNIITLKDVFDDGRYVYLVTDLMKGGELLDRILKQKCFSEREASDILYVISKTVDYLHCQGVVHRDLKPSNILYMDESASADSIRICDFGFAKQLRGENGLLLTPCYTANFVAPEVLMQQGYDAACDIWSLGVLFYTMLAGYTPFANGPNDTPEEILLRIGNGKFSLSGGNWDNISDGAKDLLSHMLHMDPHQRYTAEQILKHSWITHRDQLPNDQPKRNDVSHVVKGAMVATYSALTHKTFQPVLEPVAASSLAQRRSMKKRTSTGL

Dual specificity mitogen-activated protein kinase kinase 5, sequence (Q13163 whole entry): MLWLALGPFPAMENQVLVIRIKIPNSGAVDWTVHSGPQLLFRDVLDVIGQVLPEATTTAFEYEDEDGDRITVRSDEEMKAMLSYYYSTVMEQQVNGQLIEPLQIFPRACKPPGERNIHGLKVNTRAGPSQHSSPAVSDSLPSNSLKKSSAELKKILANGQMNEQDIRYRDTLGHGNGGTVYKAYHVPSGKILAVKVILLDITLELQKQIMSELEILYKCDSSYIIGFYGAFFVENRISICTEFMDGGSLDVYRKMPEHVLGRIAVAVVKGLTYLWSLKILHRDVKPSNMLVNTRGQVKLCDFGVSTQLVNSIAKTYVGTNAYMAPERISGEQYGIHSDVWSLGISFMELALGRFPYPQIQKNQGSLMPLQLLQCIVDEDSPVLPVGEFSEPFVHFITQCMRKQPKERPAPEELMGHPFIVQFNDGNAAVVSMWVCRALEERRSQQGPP

Compound | IC50 [1] | IC50 [2] | inhibition [3] | inhibition [4] | inhibition [5] | inhibition [6] | inhibition [7] | inhibition [8]
CN(C)Cc1cccc(N/C(=C2\C(=O)Nc3cc(C(N)=O)ccc32)c2ccccc2)c1 | 4.3 nM | 810 nM |  |  |  |  |  | 
COc1cc(C(=O)N2CCC(N3CCN(C)CC3)CC2)ccc1Nc1ncc2c(n1)N1CCc3cccc(c31)C(=O)N2C |  |  | 49% | 100% | 13% | 46% | 100% | 5.2%
